Results published in a melting point compilation (Tetko et al.; mined from patent text by program, amines drawn as free bases though some values may be those of a salt).

Compound	melting point [°C]
CC(C)(C)c1ccc(Oc2ncnc3cc(-c4ncccc4C(F)(F)F)ccc23)cc1	162 to 163
CNc1c(OC)cc(C(=O)CS(C)(=O)=O)cc1OC	98 to 99
COC(=O)C1=C(C)NC(C)=C(C(=O)OCCCCCCCCBr)C1c1cccc([N+](=O)[O-])c1 (stereo not drawn)	115
CC(Oc1ncn(-c2cccc(Cl)c2)n1)C(N)=O (stereo not drawn)	143 to 145
CSC1NC(=O)N(c2cccs2)C(=O)N1	220 to 222
CCCCCCCCNc1nc(Cl)nc(NCCCCCCCC)n1	171 to 172
c1ccc(CN2CCC(NC3CCOCC3)CC2)cc1	60
O=C(CCCCCCS(=O)(=O)c1ccc2ccccc2c1)c1ncco1	75 to 76
O=C(Nc1ccnnc1)Oc1ccccc1	184 to 185
Nc1nc(NC2CCCCC2)nc2c1ncn2C1C=CCCC1 (stereo not drawn)	108 to 111
Cc1nc(N2CCN(Cc3ccccc3)C2=O)sc1C(=O)NCc1cccnc1	153 to 154
CCCCCCN(C[C@H]1CC[C@H](CN(CCCCCC)C(=O)Nc2ccc(N(C)C)cc2)CC1)C(=O)Nc1ccc(N(C)C)cc1	160 to 163
O=C(O)c1ccc2cc(-c3ccc(CCCO)c(C45CC6CC(CC(C6)C4)C5)c3)ccc2c1	262
CCN(CC)C(=O)n1ccc(S(=O)(=O)c2c(F)cccc2F)n1	83 to 83.5
Cc1cc(C)c2nc(C)n(Cc3ccc(NCC4CCN(C5CCOCC5)CC4)cc3)c2n1	148 to 150
C=CCOc1ccc(-c2c(OC(C)C)cccc2C(=O)O)c(OC)c1	101 to 103
COC(=O)c1nc2nc(C(C)C)cc(O)n2n1	198 to 201
CC(Br)c1ccc(-n2nccn2)cn1 (stereo not drawn)	72 to 73
CC(CN(O)C(N)=O)OCc1ccco1 (stereo not drawn)	59 to 62
CCCCCCCCc1ccc(C(=S)c2ccc(OCCCC)cc2O)cc1	77 to 79
CCN(CC)c1ccc(C(=NCCO[N+](=O)[O-])NC#N)cn1	119
CCOCCn1nc(-c2cc(C(C)(C)C)c(O)c(C(C)(C)C)c2)c2cccnc21	86 to 88
Cc1nc(C)c(Cl)c(NCc2ccc(Oc3ccc4ncc([N+](=O)[O-])n4n3)c(Cl)n2)n1	184 to 186
Cc1ccc(C)c(-c2cccc3c2OC(CN)C3)c1 (stereo not drawn)	> 225
Cn1c(COc2ccc(CC3SC(=O)NC3=O)cc2)nc2ccc(Sc3ccccc3)nc21 (stereo not drawn)	166 to 168

Compound	melting point [°C]
CCCCOc1ccc(C(=O)Nc2ccc3cc(C(C)N4CCCC4)cnc3c2C)cc1 (stereo not drawn)	136 to 139
C=C=CP1(=O)OCC(C)(C)CO1	128 to 133
FC(F)(F)C1(c2cc(Cl)cc(Cl)c2)CC(c2ccc(-n3cncn3)cc2)=NO1 (stereo not drawn)	> 250
Nc1ncc(-c2ccc3ncc(-c4ccc(CO)cc4)n3n2)cc1C(F)(F)F	290 to 292
NS(=O)(=O)c1ccccc1OCC1CO1 (stereo not drawn)	132 to 133
O=C1CCC(c2ccc(OCCBr)cc2)CC1	91 to 92
CCCCN(CCCC)Cc1nc(-c2ncn3c2CN(C)C(=O)c2cc(F)ccc2-3)no1	137 to 140
COc1ccc(-c2[nH]c3cn[nH]c(=O)c3c2Cl)cc1OC1CCC1	285 to 287
Cc1n[nH]c2ccc(-c3nn(C(C)c4oc5ccccc5c(=O)c4-c4cccc(F)c4)c4ncnc(N)c34)cc12 (stereo not drawn)	254 to 256
COc1cc(Cl)ccc1C(Nc1ccc(F)c2nc(C)ncc12)C(O)(C=C(C)C)C(F)(F)F (stereo not drawn)	118
CC1(C)CCCC(C)(C)N1c1nc(Cl)cc(N2CCCC2)n1	130 to 135
CC(C)(C)c1cc(CCc2ccccc2NC(=O)NCc2ccco2)cc(C(C)(C)C)c1O	170
O=C(O)c1ccc(Cc2ccc(O)cc2)cn1	213 to 215
CN(CCCOc1ccc(OC(F)(F)F)cc1)C1CCN(c2ccc(OC[C@@]3(C)Cn4cc([N+](=O)[O-])nc4O3)cc2)CC1	167 to 170
CC1CC2OC2C=CC=CC(=O)Cc2c(Cl)c(O)cc(O)c2C(=O)O1 (stereo not drawn)	195
Fc1ccc(C=Cc2ccc(C3COC(c4c(F)cccc4F)=N3)cc2)cc1 (stereo not drawn)	154 to 156
Nc1n[nH]cc1-c1ccc(Cc2ccccc2)cc1	127 to 130
CCCCC1CCC2NC(=O)CC2C1 (stereo not drawn)	109 to 111
CCCn1cc(C(=O)OCC)c(=O)c2cc(F)c(-n3cccc3)cc21	128 to 130
COc1ccncc1NC(=O)c1c[nH]c2c1C(=O)CCC2	209 to 210
O=C(O)CCCCCc1nc2ccccc2o1	82
CCN1C(=O)CCCc2cc(Nc3ncc(Cl)c(Nc4ccccc4C(=O)NC)n3)c(OC)cc21	232 to 233
CC1(C)OCC2Cc3cc4c(cc3C(c3ccc([N+](=O)[O-])cc3)=NN21)OCO4 (stereo not drawn)	171 to 173
CN1CC[C@@]2(c3cccc(O)c3)C[C@@H](N=[N+]=[N-])CC[C@H]2C1 (racemic)	139 to 140
Nc1nc(N2CCNCC2)c2nc(-c3ccccc3)c(N)nc2n1	150 to 155

Compound	melting point [°C]
CSc1cc(-c2nc(=O)c3ccccc3s2)ccn1	173 to 174
O=[N+]([O-])c1cccc(C(Cl)=NN=C(Cl)c2ccc(C(F)(F)F)cc2)c1	78 to 80
Cc1c(C(=O)c2cnn(C)c2O)ccc2sc(=O)n(C)c12	192 to 195
CC(=O)c1c(C)[nH]c(-c2ccncc2)c1C	205 to 207
CC(C)N(CCCC1CCN(CCNC(=O)N2c3ccccc3C(=O)Nc3cccnc32)CC1)C(C)C	184
COc1c(-c2cc3c(s2)CC(O)C3)ccc2c(=O)c(C(=O)O)cn(C3CC3)c12 (stereo not drawn)	254 to 255
CCNc1ncn(CC)c2nc(C3CC3)nc1-2	103 to 105
O=C(O)CCN(CCCOc1ccc(C(=O)O)cc1)c1ccc(Cl)cc1	132 to 133
Cc1ccc(S(=O)(=O)OCCN2C(=O)c3cccc4cc5ccccc5c(c34)C2=O)cc1	240
CCCc1ccccc1OCCCOc1ccc2c(=O)cc(C(=O)O)oc2c1CC	198 to 199
CCOC(=O)c1c(CN2CCOCC2)nc2cc3c(cc2c1-c1ccc(OC)c(OC)c1)OCCO3	174 to 175
Nc1cc(Br)cc(OCc2ccccc2)c1NC(=O)C1CC1	207 to 208
O=C(O)CCCCC(=O)Nc1ccc(C(=O)NN=C2C(=O)Nc3ccc(I)cc32)cc1	286
CC(CN1C(=O)C2(COc3cc4c(cc32)CCO4)c2ccccc21)OCc1ccccn1 (stereo not drawn)	46 to 54
CNC(=C[N+](=O)[O-])NCc1ccc(Cl)cc1	219 to 220
CNc1nc(NCc2ccc(NC(=O)c3ccc(Cl)nc3)cc2)c2c(C)cccc2n1	233 to 236
COc1cccc2c1SCCC2=O	110
COc1ccc(CCN2CCC(NC(=O)C34CC5CC(CC(C5)C3)C4)C2)cc1 (stereo not drawn)	81 to 83
O[C@@H]1CCc2ccc(F)cc2C1	59 to 61
NCc1cccc(Nc2n[nH]c3ncnc(Nc4cccc(Cl)c4)c23)c1	212 to 214
CS(=O)(=O)c1ccc(-c2cnn(Cc3ccc(Cl)s3)c(=O)c2-c2ccc(F)cc2)cc1	139 to 141
N=C(NCC1(c2ccc(Cl)cc2)CC1)NN=Cc1c(Cl)cccc1Cl	126 to 128
COc1ccc(Oc2cnccc2N)c2ccccc12	126 to 129
CCCCC(Oc1ccc(C#N)cc1C=O)C(=O)OC (stereo not drawn)	77 to 79
CN(C)CNS(=O)(=O)c1ccc(-c2cnn(Cc3c(F)c(F)c(F)c(F)c3F)c(=O)c2-c2ccc(F)cc2)cc1	194 to 196

Compound	melting point [°C]
CC(=O)c1ccc(Nc2c(F)c(F)cc(F)c2F)c(CC(=O)N(C)C)c1	112 to 114
O=C1CC(c2ccccc2Cl)Cc2nccc(Cl)c21 (stereo not drawn)	130 to 131
CC(C)(C)OC(=O)N1CCN(C(=O)c2ccc3n2Cc2ccccc2N(C(=O)C2=CC=C(c4ccccc4)C(C)(C(F)(F)F)C2)C3)CC1 (stereo not drawn)	104 to 121
C=Cc1cc(CNC(=O)NCc2ccc(C(C)(C)C)cc2)cc(C(F)(F)F)c1NS(C)(=O)=O	134 to 136
CC(C)n1c(/C=C/C=O)c(-c2ccc(F)cc2)c2ccccc2c1=O	159 to 161
CN(CCOc1ccc(CC2SC(=O)NC2=O)cc1)c1nccs1 (stereo not drawn)	186
CCCC[C@H](NC(=O)[C@H](CC(C)C)NC(=O)c1ccc(C(F)(F)F)cc1F)C(=O)CSCc1ccco1	102 to 106
COc1ccc(-n2nnnc2C(F)(F)F)cc1C1=CC2(CCCN(C(=O)c3ccccc3)C2)OC1 (stereo not drawn)	154 to 156
Fc1ccc2[nH]cc(C3=CCC(N4CCC(Cc5ccccc5)CC4)CC3)c2c1 (stereo not drawn)	72 to 74
COc1cc(Nc2nc3cccc(-c4ccccc4)c3o2)cc(OC)c1OC	182 to 185
CC1(c2ccccc2)OCC(OCc2ccccc2)CO1 (stereo not drawn)	87 to 88
CC(C)(C)C(=O)CC(=O)c1ncn2c1c(=O)n(C(C)(C)C)c1ccccc12	190 to 191
CC(C)(C)c1cc(CCc2ccccc2NC(=O)NCC(C)(C)c2ccccc2F)cc(C(C)(C)C)c1O	182 to 183
CCN(CC)c1ccc(S(=O)(=O)CCCCC(=O)O)cc1	106 to 108
COc1cc(N[C@H]2CC[C@H](NC3CCCC3)CC2)c(Cl)cc1C(N)=O	169 to 171
CC(C)S(=O)(=O)n1c(N)nc2ccc(C(=CC(N)=O)c3ccccc3)cc21	211 to 212
Cn1c(C#N)c(C#N)n(-c2cc(O)c(Cl)cc2F)c1=O	210 to 212
N#Cc1ccc(-c2cccc(OC3SCC(O)C(O)C3O)c2)cn1 (stereo not drawn)	179
CC(C)N(CCCC(=O)OC1c2ccccc2C(=O)N1c1ccc2ccc(Cl)nc2n1)C(C)C (stereo not drawn)	118
Cc1cc(Br)c(Cl)c(C(=O)O)c1	160
Cn1cc(CCNC(=O)OC(C)(C)C)c2cc(S(=O)(=O)c3ccccc3)ccc21	127 to 131
COc1cc(Nc2nccc(C(=O)Nc3ccccc3)n2)cc(OC)c1OC	158 to 159
CCCCCCCCCCNC(=O)c1ccccc1N	72 to 74
